Earlier results on 2 compounds are cited in US20230000079A1, “COMBINATION COMPRISING A TRIKETONE HERBICIDE AND A DIPHENYLETHER HERBICIDE, AND A METHOD FOR MAKING AND USING THE COMBINATION” (Generic Crop Science LLC, priority 2021, published 2023).

Structures are written as SMILES. Converted amounts (≈) assume the structure as drawn.

Take `CS(=O)(=O)c1ccc(C(=O)C2C(=O)CCCC2=O)c([N+](=O)[O-])c1` [Mesotrione, 2-[4-(methylsulfonyl)-2-nitrobenzoyl]cyclohexane-1,3-dione]: the water solubility (20° C.) is given as 1,500 mg/L.
Regarding `CCOc1cc(Oc2ccc(C(F)(F)F)cc2Cl)ccc1[N+](=O)[O-]` [Oxyfluorfen, 2-chloro-4-(trifluoromethyl)phenyl 3-ethoxy-4-nitrophenyl ether], the “solubility in most organic solvents” value is given as “highly soluble” and the solubility in water is 0.1 µg/mL (≈ 0.276 µM).
